Results: patent publication US7790474B1, “p53 modulators” (Schering Corporation, priority 2005, dated 2010)

Test system: DLD-1 human colon adenocarcinoma cells
Test: In vivo anti-tumor study, unstaged model
Design: species or system Nude mice
Details: 10 mpk orally every 12 hours for 31 days, dosing from day 4
Method: Unstaged Model. In this model, the therapy was started immediately after the tumor cells had been inoculated. Nude mice (5-6 week old females) were inoculated with 5×10^6 DLD-1 human colon adenocarcinoma cells on day 1, and randomized on day 3. The dosing of these mice was started on day 4. Groups 1 to 4, having 10 mice in each group, were dosed orally every 12 hours with vehicle,
[drawing 33] 50 mpk, respectively, for 31 days. All animals were carefully monitored at least daily and each tumor was measured twice a week. The tumor growth inhibition level observed is set forth below in Table 3.

SMILES | % inhibition (tumor growth), unstaged model [%]
CN(C)CCCNc1nc(CN2CCN(C(c3ccc(Cl)cc3)c3ccc(Cl)cc3)CC2)nc2ccccc12 [drawing 34] | 48.30

Same assay, conditions: 30 mpk orally every 12 hours for 31 days, dosing from day 4

SMILES | % inhibition (tumor growth), unstaged model [%]
CN(C)CCCNc1nc(CN2CCN(C(c3ccc(Cl)cc3)c3ccc(Cl)cc3)CC2)nc2ccccc12 [drawing 34] | 43.23

Same assay, conditions: 50 mpk orally every 12 hours for 31 days, dosing from day 4

SMILES | % inhibition (tumor growth), unstaged model [%]
CN(C)CCCNc1nc(CN2CCN(C(c3ccc(Cl)cc3)c3ccc(Cl)cc3)CC2)nc2ccccc12 [drawing 34] | 78.96

Test system: GST-p53 DNA binding domain (aa 92-aa 312)
Test: Scintillation Proximity Assay (displacement of 3H-labeled p53 binder)
Details: percentage of 3H-labeled ligand remaining bound, number in brackets = average of n
Method: [drawing 38] (^3H at C bearing the chlorophenyl groups and the piperazinyl group), a radiolabeled small molecule which binds to p53, and the GST-p53 DNA binding domain (aa 92-aa 312), a quantitative screening assay was used to determine if various molecules comprise p53 binding activity. The assay is based on Scintillation Proximity Assay (SPA) technology. The complex of GST-p53,
[drawing 39] and Glutathione-SPA beads (Amersham Biosciences) were incubated with mixing for 1 hour at room temperature in the presence of the compounds to be screened. The signal was read on a Microbeta.
The numerical values expressed refer to the percentage of labeled
[drawing 40] remaining bound to the mutant p53 protein after exposure to the indicated compound.

SPA ASSAY % Residual T @ 2 ug/mL of drug (Average of) | SMILES
66.5% | CN(C)CCCNc1nc(CN(C)C2CCC2)nc2ccccc12 [Formula 95]
68.1% | CN(C)CCCNc1nc(CN(C)Cc2ccc(-c3ccccc3)cc2)nc2ccccc12 [Formula 90]
60.1 (3) % | CN(C)CCCNc1nc(CN(C)Cc2ccccc2OCC(=O)O)nc2ccccc12 [Formula 89]
58.9% | CN(C)CCCNc1nc(CN(C)Cc2c(F)cccc2F)nc2ccccc12 [Formula 75]
52.3% | COC(=O)[C@@H](Nc1nc(CNC(=O)Nc2cc(Cl)cc(Cl)c2)nc2ccccc12)C(C)C [Formula 56]
52.9% | CN(C)CCCNc1nc(CN(C)Cc2cccc3ccccc23)nc2ccccc12 [Formula 82]
45.9 (3) % | CN(C)CCCNc1nc(CN(C)Cc2ccc3ccccc3c2)nc2ccccc12 [Formula 83]
77.0% | CN(C)CCCOc1nc(CN2CCN(C(c3ccc(Cl)cc3)c3ccc(Cl)cc3)CC2)nc2ccccc12 [Formula 37]
13.5 (3) % | CC(C)C1CCC(N(C)Cc2nc(NCCCN(C)C)c3ccccc3n2)CC1 (stereo not drawn) [Formula 100]
60.0% | COc1ccc(Cl)cc1NC(=O)NCc1nc(N[C@H](C(N)=O)C(C)C)c2ccccc2n1 [Formula 60]
72.5% | CC(C)COC(=O)[C@H](CCCN(C)C)Nc1nc(CN2CCN(C(c3ccc(Cl)cc3)c3ccc(Cl)cc3)CC2)nc2ccccc12 [Formula 117]
5.5 (2) % | CN(C)CCCNc1nc(CN(C)C2CCC(C#N)(c3ccccc3)CC2)nc2ccccc12 (stereo not drawn) [Formula 109]
48.4% | COc1ccc(Cl)cc1NC(=O)N(C)Cc1nc(NCCCN(C)C)c2ccccc2n1 [Formula 112]
62.7% | COC(=O)C1CCN(c2nc(CN3CCN(C(c4ccc(Cl)cc4)c4ccc(Cl)cc4)CC3)nc3ccccc23)CC1 [Formula 53]
47.7 (3) % | CC(=O)N1CCC(N(C)Cc2nc(NCCCN(C)C)c3ccccc3n2)CC1 [Formula 101]
48.1% | COC(=O)[C@@H](Nc1nc(CNC(=O)Nc2ccccc2C(F)(F)F)nc2ccccc12)C(C)C [Formula 54]

The next lines start with the compound.

SMILES | SPA ASSAY % Residual T @ 2 ug/mL of drug (Average of)
CN(CCc1ccccn1)c1nc(CN2CCN(C(c3ccc(Cl)cc3)c3ccc(Cl)cc3)CC2)nc2ccccc12 [Formula 45] | 61.6%
CN(C)CCCNc1nc(CN2CCN(Cc3cccc4ccccc34)CC2)nc2ccccc12 [Formula 14] | 27.9%
OC1CCN(c2nc(CN3CCN(C(c4ccc(Cl)cc4)c4ccc(Cl)cc4)CC3)nc3ccccc23)C1 (stereo not drawn) [Formula 42] | 70.0%
CCC(C)(C)C1CCC(N(C)Cc2nc(NCCCN(C)C)c3ccccc3n2)CC1 (stereo not drawn) [Formula 107] | 6.3 (2) %
Clc1ccc(C(c2ccc(Cl)cc2)N2CCN(Cc3nc(N4CCOCC4)c4ccccc4n3)CC2)cc1 [Formula 41] | 63.1%
CN(C)CCCNc1nc(CN(C)C2CCC(C(C)(C)C)CC2)nc2ccccc12 (stereo not drawn) [Formula 103] | 7.8 (2) %
CN(C)CCCNc1nc(CN(C)C2CCCCC2)nc2ccccc12 [Formula 96] | 45.5 (3) %
CCN(CC)C(=O)C1CCCN(c2nc(CN3CCN(C(c4ccc(Cl)cc4)c4ccc(Cl)cc4)CC3)nc3ccccc23)C1 (stereo not drawn) [Formula 49] | 65.7%
CN(C)CCCNc1nc(CN(C)C2CCC3(CC2)OCCO3)nc2ccccc12 [Formula 104] | 23.0 (2) %
O=c1[nH]c2ccccc2n1C1CCN(c2nc(CN3CCN(C(c4ccc(Cl)cc4)c4ccc(Cl)cc4)CC3)nc3ccccc23)CC1 [Formula 18] | 47.9%
CN(C)CCCNc1nc(CN(Cc2ccccc2)Cc2ccccc2)nc2ccccc12 [Formula 113] | 61.7%
Clc1ccc(C(c2ccc(Cl)cc2)N2CCN(Cc3nc(N4CCc5ccccc5C4)c4ccccc4n3)CC2)cc1 [Formula 44] | 83.9%
CN(C)CCCNc1nc(CN2CCN(Cc3cccc4cc[nH]c34)CC2)nc2ccccc12 [Formula 13] | 37.9%
OC1CCN(c2nc(CN3CCN(C(c4ccc(Cl)cc4)c4ccc(Cl)cc4)CC3)nc3ccccc23)CC1 [Formula 51] | 61.6%

Test system: DLD-1 human colon adenocarcinoma cells
Test: In vivo anti-tumor study, staged model
Design: species or system Nude mice
Details: 10 mpk orally every 12 hours for 26 days, dosing from day 10
Method: Staged Model. In this model the initiation of therapy was delayed until the tumors had reached a certain volume. Nude mice (5-6 week old females) were inoculated with 5×10^6 DLD-1 human colon adenocarcinoma cells on day 1, and then randomized on day 10. The dosing of these mice was started on day 10. Groups 1 to 5, having 10 mice in each group, were dosed orally every 12 hours with no treatment, vehicle,
[drawing 36] 50 mpk, respectively, for 26 days. All animals were carefully monitored at least daily and each tumor was measured twice a week. The tumor growth inhibition level observed is set forth below in Table 4.

SMILES | % inhibition (tumor growth), staged model [%]
CN(C)CCCNc1nc(CN2CCN(C(c3ccc(Cl)cc3)c3ccc(Cl)cc3)CC2)nc2ccccc12 [drawing 37] | 10.15

Same assay, conditions: 30 mpk orally every 12 hours for 26 days, dosing from day 10

SMILES | % inhibition (tumor growth), staged model [%]
CN(C)CCCNc1nc(CN2CCN(C(c3ccc(Cl)cc3)c3ccc(Cl)cc3)CC2)nc2ccccc12 [drawing 37] | 14.73

Same assay, conditions: 50 mpk orally every 12 hours for 26 days, dosing from day 10

SMILES | % inhibition (tumor growth), staged model [%]
CN(C)CCCNc1nc(CN2CCN(C(c3ccc(Cl)cc3)c3ccc(Cl)cc3)CC2)nc2ccccc12 [drawing 37] | 44.31
